Experimental data from patent US8697747B2, “Enhancing coagulation or reducing fibrinolysis” (THe UAB Research Foundation, priority 2009, dated 2014).

Assays:
[1] = tested on: factor VII deficient plasma; assay: Thrombelastography, factor VII deficient plasma; assay type: biochemical, human; conditions: 100 mmol CORM-2 vs control; FVII deficient plasma, 4 individuals
Experimental: (§1) Plasma deficient (<1% normal activity) in factor VIII (FVIII; 11 individuals), factor IX (FIX; 5 individuals), or factor VII (FVII; 4 individuals) was obtained from anonymous donors (George King Bio-Medical, Overland Park, Kans.) and was anticoagulated with sodium citrate. The final volume for all subsequently described plasma sample mixtures was […]. Sample composition consisted of […] of plasma, […] of tissue factor (0.1% final concentration in 0.9% NaCl; Diagnostica Stago, Asnieres, France), 3.6 mL of dimethyl sulfoxide (DMSO) or DMSO with CORM-2 ([…]; Sigma-Aldrich, St. Louis, Mo.), and 20 mL of […] CaCl2. […] (Motterlini et al. 2005). While CORM-2 decays slowly in DMSO, DMSO was added to the dry compound just prior to placement into the plasma mixture.
(§2) Plasma sample mixtures were placed in a disposable cup in a computer-controlled THROMBELASTOGRAPH® hemostasis system (Model 5000; Haemoscope Corp., Niles, Ill.), with addition of CaCl2 as the last step to initiate clotting. Data were collected until clot strength stabilized (maximum amplitude).
(§3) Statistical analyses. […] A paired student's t-test was used to analyze the effects of CORM-2 exposure in FVIII deficient individuals. The results of the FIX and FVII deficient groups were presented but not statistically analyzed secondary to the small number of individuals in each cohort. […] Statistical analyses and graphical representation of the data were generated with commercially available software (SigmaPlot 11.0; Systat Software Inc., San Jose, Calif.; CorelDRAW 12.0; Corel Corp., Ottawa, Ontario, Canada). A P value of less than 0.05 was considered significant.

pooled normal plasma = assay: Thrombelastographic coagulation kinetics, tissue factor-activated normal plasma; assay type: biochemical, human; conditions: 100 μM
Experimental: (§4) Pooled normal plasma (George King Bio-Medical, Overland Park, Kans.) anticoagulated with sodium citrate was utilized for experimentation. […] Factor XIII (FXIII) deficient plasma anticoagulated with sodium citrate was also obtained from George King Bio-Medical (Overland Park, Kans.).
(§5) Plasma Sample Composition. The final volume for all subsequently described plasma sample mixtures was 359.4 μL. […] (Motterlini et al., Expert Opin Investig Drugs, 14:1305-1318 (2005), which is incorporated by reference herein in its entirety).
(§6) Clot Lifespan Model Analyses. Plasma sample mixtures were placed in a disposable cup in a computer-controlled THROMBELASTOGRAPH® hemostasis system (Model 5000, Haemoscope Corp., Niles, Ill.), with addition of CaCl2 as the last step to initiate clotting. Data were collected for 15 minutes, as normal plasma completes thrombus formation within this interval in this system (Dong et al., Eur J Pharmacol 590:99-104 (2008)).
(§7) Statistical Analyses. Data are presented as mean±SD. All conditions described were represented with n=8 experiments, as n=6-8 typically provides statistical power>0.8 in similar analyses (Nielsen et al., Acta Anaesthesiol Scand 49:222-231 (2005) and Nielsen et al., Blood Coagul Fibrinolysis 17:75-81 (2006)). Analyses of the effects of CORM-2 and iCORM-2 on thrombelastographic variables were conducted using one way analysis of variance with the Holm-Sidak test used for post hoc comparisons. Graphical representation of the data was generated with commercially available software (Origin 7.5, OriginLab Corp., Northampton, Mass.). A P value of ≦0.05 was considered significant.

[2] = tested on: factor IX deficient plasma; assay: Thrombelastography, factor IX deficient plasma; assay type: biochemical, human; conditions: 100 mmol CORM-2 vs control; FIX deficient plasma, 5 individuals
Experimental: as §1, §2, §3

[3] = tested on: Factor XIII (FXIII) deficient plasma; assay: Thrombelastographic coagulation kinetics, Celite-activated FXIII deficient plasma; assay type: biochemical, human
Experimental: as §4, §5, §6, §7

rat plasma = assay: Thrombelastography in rat plasma with or without tPA; assay type: biochemical
Experimental: Two sets of two Sprague Dawley outbred male rats were anesthetized with ketamine and xylazine and had blood drawn via cardiac puncture, pooled in two batches, and anticoagulated 1:9 with 3.2% sodium citrate. Two male New Zealand White rabbits were sedated with acepromazine and had blood collected via central ear artery and similarly anticoagulated. Blood was centrifuged at 3000×g for 15 min, and the plasma stored in two batches until analyzed. The final volume for thrombelastographic plasma sample mixtures was 359.6 μL. Sample composition consisted of 316 μL of plasma; 10 μL of tissue factor reagent (0.1% final concentration in dH2O; Instrumentation Laboratory, Lexington, Mass.); 10 μL of dH2O or tissue-type plasminogen activator (tPA, 580 U/μg, Genentech, Inc., San Francisco, Calif.) for a final activity of 2000 U/mL for rat plasma or 300 IU/mL for rabbit plasma; 3.6 μL of dimethyl sulfoxide (DMSO) or DMSO with CORM-2 (100 μM final concentration; Sigma-Aldrich, St. Louis, Mo.); and 20 μL of 200 mM CaCl2. The tPA activity for each species was determined with pilot data to obtain reproducible lysis within 15 min. There was no appreciable lysis in rat plasma at 100, 300, or 1000 U/mL tPA. Plasma sample mixtures were placed in a disposable cup in a computer-controlled THROMBELASTOGRAPH® hemostasis system (Model 5000, Haemoscope Corp., Niles, Ill.), with addition of CaCl2 as the last step to initiate clotting. In experiments without tPA, data were collected until clot strength (maximum amplitude) was stable. In experiments with tPA, data derived from the second rabbit plasma samples were collected for 60 min whereas data obtained with the second rat plasma samples were collected for 15 min. Thrombelastographic variables were determined at 39° C. as previously described in Examples 1, 2, and 4. Data were statistically compared with unpaired Student's t-test.

[4] = TF-activated normal plasma, mean ± SD, n=8
[5] = 100 μM, Celite-activated FXIII deficient plasma, mean ± SD, n=8
[6] = 2000 U/ml tPA, 100 μM CORM-2, mean ± SD, n=4
[7] = 2000 U/ml tPA, 100 μM vs 0 μM CORM-2
[8] = no tPA, 100 μM CORM-2, mean ± SD, n=4

[C-]#[O+].[C-]#[O+].[C-]#[O+].[C-]#[O+].[C-]#[O+].[C-]#[O+].[Cl][Ru][Cl].[Cl][Ru][Cl] [CORM-2, tricarbonyldichlororuthenium (II) dimer]
effect on MRTG [1]: an increase in MRTG and TTG in all FVII deficient plasma donors
effect on TMRTG [1]: an increase in TMRTG in all individuals tested
effect on TTG [1]: an increase in MRTG and TTG in all FVII deficient plasma donors
MRTG (maximum rate of thrombus generation) (pooled normal plasma; [4]): 9.1 ± 0.9 dynes/cm^2/sec
TMRTG (time to maximum rate of thrombus generation) (pooled normal plasma; [4]): 156 ± 13 s
TTG (total thrombus generation) (pooled normal plasma; [4]): 273 ± 21 dynes/cm^2
velocity of clot growth relative to unexposed samples (pooled normal plasma; tissue factor activation): more than double
effect on MRTG (speed of clot formation) [2]: four of five individuals had an increase in the speed of clot formation
effect on TMRTG [2]: decreased the TMRTG value of all five individual plasma samples tested
effect on TTG [2]: All individual plasma samples demonstrated an increase in TTG
MRTG (maximum rate of thrombus generation) [3, 5]: 9.1 ± 1.2 dynes/cm^2/sec
TMRTG (time to maximum rate of thrombus generation) [3, 5]: 296 ± 13 s
TTG (total thrombus generation) [3, 5]: 163 ± 21 dynes/cm^2
equivalent replacement of FXIII activity with regard to enhancement of coagulation kinetics ([3]; addition to FXIII-deficient plasma): 100%
ACL (area under the curve of lysis) (rat plasma; [6]): 0 ± 0 −dynes/cm^2
MRL (maximum rate of lysis) (rat plasma; [6]): 0.0 ± 0.0 −dynes/cm^2/sec
MRTG (maximum rate of thrombus generation) (rat plasma; [6]): 14.7 ± 0.6 dynes/cm^2/sec
TMRTG (time to maximum rate of thrombus generation) (rat plasma; [6]): 1.5 ± 0.1 min
TTG (total thrombus generation) (rat plasma; [6]): 230 ± 6 dynes/cm^2
TMRL (time to maximum rate of lysis) (rat plasma; 2000 U/ml tPA, 100 μM CORM-2, n=4): No Lysis
Percent Change of ACL (rat plasma; [7]): −100%
Percent Change of MRL (rat plasma; [7]): −100%
Percent Change of MRTG (rat plasma; [7]): 29%
Percent Change of TMRTG (rat plasma; [7]): 0%
Percent Change of TTG (rat plasma; [7]): 23%
MRTG (maximum rate of thrombus generation) (rat plasma; [8]): 14.7 ± 0.6 dynes/cm^2/sec
TMRTG (time to maximum rate of thrombus generation) (rat plasma; [8]): 1.5 ± 0.1 min
TTG (total thrombus generation) (rat plasma; [8]): 230 ± 6 dynes/cm^2
Percent Change of MRTG (rat plasma; no tPA, 100 μM vs 0 μM CORM-2): 29%
Percent Change of TMRTG (rat plasma; no tPA, 100 μM vs 0 μM CORM-2): 0%
Percent Change of TTG (rat plasma; no tPA, 100 μM vs 0 μM CORM-2): 23%
